# Assays:
# [1] = Tmax in Sprague-Dawley rat at 2 mg/kg; type: ADME, organism-based; set-up: dose 2 mg/kg; conditions: in vivo
# [2] = Protein binding in rat plasma; type: ADME, cell-free; conditions: read-out: PB (converted)
# [3] = target: Vascular endothelial growth factor receptor 2 (Homo sapiens, UniProt P35968); assay: Inhibition of KDR by HTRF assay
# Blood [4] = assay: Inhibition of anti-CD3-induced IL2 production in human whole blood by ELISA; type: functional, tissue-based
# [5] = Volume of distribution at steady state in Sprague-Dawley rat at 0.5 mg/kg, iv; type: ADME, organism-based; set-up: dose 0.5 mg/kg, route intravenous; conditions: in vivo, read-out: Vdss
# [6] = target: Tyrosine-protein kinase Lck (Homo sapiens, UniProt P06239)
# Description: Inhibition of Lck by HTRF assay
# [7] = Oral bioavailability in Sprague-Dawley rat at 2 mg/kg; type: ADME, organism-based; conditions: in vivo
# [8] = Clearance in Sprague-Dawley rat at 0.5 mg/kg, iv; type: ADME, organism-based; set-up: dose 0.5 mg/kg, route intravenous; conditions: in vivo
# Angiopoietin-1 receptor = Angiopoietin-1 receptor (Homo sapiens, UniProt Q02763); assay: Inhibition of Tie2 by HTRF assay
# [9] = Protein binding in mouse plasma; type: ADME, cell-free; conditions: read-out: PB (converted)
# [10] = target: T1, Tyrosine-protein kinase JAK3 (Homo sapiens, UniProt P52333); assay: Inhibition of Jak3 by HTRF assay
# T1 sequence (P52333 whole entry): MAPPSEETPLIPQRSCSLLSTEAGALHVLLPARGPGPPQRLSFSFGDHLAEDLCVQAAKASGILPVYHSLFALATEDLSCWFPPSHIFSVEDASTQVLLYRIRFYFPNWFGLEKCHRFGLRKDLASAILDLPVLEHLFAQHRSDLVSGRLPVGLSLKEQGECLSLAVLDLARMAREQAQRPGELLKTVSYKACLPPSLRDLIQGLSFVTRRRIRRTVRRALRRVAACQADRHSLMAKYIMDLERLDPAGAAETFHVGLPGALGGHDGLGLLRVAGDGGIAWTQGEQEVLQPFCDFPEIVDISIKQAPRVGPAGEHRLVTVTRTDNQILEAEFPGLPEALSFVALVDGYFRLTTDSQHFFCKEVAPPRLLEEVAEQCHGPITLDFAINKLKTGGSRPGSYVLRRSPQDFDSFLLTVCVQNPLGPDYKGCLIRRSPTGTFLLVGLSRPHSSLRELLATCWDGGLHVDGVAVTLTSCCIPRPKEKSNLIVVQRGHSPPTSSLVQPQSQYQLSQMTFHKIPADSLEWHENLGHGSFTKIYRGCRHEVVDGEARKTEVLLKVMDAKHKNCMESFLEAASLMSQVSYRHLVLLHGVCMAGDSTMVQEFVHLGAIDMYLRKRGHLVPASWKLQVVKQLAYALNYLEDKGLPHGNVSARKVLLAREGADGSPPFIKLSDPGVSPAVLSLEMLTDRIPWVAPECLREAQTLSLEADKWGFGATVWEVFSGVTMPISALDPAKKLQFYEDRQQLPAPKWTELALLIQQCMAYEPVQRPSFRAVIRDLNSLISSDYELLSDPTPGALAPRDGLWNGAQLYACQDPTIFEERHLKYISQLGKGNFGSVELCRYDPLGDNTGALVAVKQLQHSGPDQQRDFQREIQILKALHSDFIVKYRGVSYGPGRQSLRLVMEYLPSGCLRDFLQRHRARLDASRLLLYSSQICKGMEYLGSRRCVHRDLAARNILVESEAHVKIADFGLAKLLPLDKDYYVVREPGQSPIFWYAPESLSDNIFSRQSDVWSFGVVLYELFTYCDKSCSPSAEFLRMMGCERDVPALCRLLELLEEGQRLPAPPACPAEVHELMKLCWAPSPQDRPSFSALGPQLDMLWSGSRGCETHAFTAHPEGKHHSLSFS
# [11] = AUC (0 to infinity) in Sprague-Dawley rat at 2 mg/kg, po; type: ADME, organism-based; set-up: time infinity, dose 2 mg/kg, route oral; conditions: plasma
# [12] = Cmax in Sprague-Dawley rat at 2 mg/kg, po; type: ADME, organism-based; set-up: dose 2 mg/kg, route oral; conditions: in vivo
# [13] = Half life in Sprague-Dawley rat at 0.5 mg/kg, iv; type: ADME, organism-based; set-up: dose 0.5 mg/kg, route intravenous; conditions: in vivo
# Lymphocyte = assay: Inhibition of T cell activation in human peripheral blood lymphocytes by mixed lymphocyte reaction; type: functional, cell-based
# [14] = target: Mitogen-activated protein kinase 14 (Homo sapiens, UniProt Q16539); assay: Inhibition of p38alpha by HTRF assay
# Mus musculus = species on record: Mus musculus; assay: Inhibition of anti-CD3-induced IL2 production in BALB/c mouse; type: functional
# Blood [15] = assay: Inhibition of LPS-induced TNFalpha production in human whole blood by ELISA; type: functional, tissue-based
# Chain of Tyrosine-protein kinase Lck (P06239 whole entry): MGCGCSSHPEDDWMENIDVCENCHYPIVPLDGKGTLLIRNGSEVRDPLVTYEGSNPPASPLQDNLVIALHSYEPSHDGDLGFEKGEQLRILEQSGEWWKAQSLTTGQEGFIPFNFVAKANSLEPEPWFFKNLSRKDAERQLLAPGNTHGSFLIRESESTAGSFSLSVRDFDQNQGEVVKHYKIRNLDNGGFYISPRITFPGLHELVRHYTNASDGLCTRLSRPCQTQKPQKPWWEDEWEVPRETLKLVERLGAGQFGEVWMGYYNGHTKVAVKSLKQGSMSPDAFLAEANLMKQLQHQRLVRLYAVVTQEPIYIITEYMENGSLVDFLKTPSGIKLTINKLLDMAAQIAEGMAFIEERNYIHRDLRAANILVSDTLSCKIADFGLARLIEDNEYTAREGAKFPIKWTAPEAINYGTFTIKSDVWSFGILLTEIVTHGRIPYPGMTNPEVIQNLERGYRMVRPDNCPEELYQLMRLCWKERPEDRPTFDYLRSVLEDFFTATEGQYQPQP
# Chain of Angiopoietin-1 receptor (Q02763 whole entry): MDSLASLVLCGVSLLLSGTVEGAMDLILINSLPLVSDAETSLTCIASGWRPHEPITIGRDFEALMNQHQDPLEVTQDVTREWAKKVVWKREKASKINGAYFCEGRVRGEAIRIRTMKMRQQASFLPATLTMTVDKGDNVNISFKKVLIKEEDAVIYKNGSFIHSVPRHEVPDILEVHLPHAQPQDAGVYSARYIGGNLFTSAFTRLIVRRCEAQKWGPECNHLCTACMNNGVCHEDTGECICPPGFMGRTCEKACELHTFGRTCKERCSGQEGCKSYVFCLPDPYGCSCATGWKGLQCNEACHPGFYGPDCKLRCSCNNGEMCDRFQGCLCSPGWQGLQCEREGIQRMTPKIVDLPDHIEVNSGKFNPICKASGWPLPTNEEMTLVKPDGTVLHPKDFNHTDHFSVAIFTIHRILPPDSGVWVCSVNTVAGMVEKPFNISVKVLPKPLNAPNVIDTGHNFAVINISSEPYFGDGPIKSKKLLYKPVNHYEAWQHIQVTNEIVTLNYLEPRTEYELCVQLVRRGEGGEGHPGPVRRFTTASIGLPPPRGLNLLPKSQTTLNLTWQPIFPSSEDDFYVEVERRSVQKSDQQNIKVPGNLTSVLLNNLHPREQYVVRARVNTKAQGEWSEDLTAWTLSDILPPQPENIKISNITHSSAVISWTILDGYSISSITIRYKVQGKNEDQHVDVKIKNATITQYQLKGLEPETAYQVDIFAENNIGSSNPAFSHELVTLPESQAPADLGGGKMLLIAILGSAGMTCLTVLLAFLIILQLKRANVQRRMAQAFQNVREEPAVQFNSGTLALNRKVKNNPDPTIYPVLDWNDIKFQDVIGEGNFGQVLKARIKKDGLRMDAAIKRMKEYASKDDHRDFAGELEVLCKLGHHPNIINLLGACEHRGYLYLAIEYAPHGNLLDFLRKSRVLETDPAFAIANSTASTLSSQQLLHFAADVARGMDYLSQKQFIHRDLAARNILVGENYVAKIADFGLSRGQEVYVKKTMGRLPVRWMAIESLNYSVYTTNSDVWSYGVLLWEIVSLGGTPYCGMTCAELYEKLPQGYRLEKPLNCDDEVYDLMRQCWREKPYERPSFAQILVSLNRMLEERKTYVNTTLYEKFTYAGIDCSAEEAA
# Chain of Mitogen-activated protein kinase 14 (Q16539 whole entry): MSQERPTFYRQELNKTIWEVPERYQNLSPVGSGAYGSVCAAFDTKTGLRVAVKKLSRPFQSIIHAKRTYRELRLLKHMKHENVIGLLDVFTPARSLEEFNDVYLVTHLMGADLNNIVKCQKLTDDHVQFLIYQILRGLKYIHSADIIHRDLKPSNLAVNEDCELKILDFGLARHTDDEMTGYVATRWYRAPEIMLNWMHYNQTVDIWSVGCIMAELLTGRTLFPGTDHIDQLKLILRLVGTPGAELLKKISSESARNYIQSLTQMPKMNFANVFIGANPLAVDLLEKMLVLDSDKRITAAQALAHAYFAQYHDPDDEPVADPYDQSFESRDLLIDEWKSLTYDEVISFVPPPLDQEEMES
# Chain of Vascular endothelial growth factor receptor 2 (P35968 whole entry): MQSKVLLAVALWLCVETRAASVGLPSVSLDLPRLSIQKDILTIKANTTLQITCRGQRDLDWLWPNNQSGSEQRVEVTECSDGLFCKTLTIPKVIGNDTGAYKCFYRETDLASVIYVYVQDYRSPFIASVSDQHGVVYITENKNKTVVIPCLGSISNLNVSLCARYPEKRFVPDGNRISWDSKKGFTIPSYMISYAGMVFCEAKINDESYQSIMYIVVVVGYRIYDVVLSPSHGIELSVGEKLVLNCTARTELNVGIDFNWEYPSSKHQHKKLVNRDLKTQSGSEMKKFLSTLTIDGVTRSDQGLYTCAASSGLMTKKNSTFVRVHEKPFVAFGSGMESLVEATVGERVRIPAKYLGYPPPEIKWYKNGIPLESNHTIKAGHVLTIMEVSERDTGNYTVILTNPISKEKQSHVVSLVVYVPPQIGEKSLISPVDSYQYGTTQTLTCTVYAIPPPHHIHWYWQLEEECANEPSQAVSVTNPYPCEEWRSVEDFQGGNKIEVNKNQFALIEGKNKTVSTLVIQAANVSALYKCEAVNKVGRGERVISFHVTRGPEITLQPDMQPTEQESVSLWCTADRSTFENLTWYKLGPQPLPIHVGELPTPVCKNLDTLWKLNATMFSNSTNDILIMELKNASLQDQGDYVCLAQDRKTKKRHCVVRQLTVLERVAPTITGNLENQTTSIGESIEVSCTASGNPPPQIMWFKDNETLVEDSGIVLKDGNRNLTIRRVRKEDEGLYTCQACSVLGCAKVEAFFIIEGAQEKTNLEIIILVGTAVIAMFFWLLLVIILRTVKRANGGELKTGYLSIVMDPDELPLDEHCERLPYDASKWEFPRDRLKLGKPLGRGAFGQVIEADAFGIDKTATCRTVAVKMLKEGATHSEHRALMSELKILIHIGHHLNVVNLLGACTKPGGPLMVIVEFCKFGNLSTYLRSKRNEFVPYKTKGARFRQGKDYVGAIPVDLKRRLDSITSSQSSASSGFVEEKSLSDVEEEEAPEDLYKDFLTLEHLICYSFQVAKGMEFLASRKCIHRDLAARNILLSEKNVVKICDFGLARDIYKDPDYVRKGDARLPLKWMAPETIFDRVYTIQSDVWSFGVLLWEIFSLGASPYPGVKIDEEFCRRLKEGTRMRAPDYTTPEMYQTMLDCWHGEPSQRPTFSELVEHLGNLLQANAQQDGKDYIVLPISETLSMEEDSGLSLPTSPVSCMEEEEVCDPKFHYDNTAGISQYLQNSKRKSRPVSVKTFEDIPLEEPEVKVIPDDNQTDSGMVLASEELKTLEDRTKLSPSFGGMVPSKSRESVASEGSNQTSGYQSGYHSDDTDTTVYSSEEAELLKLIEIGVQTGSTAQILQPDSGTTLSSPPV
Tmax [1],fraction unbound [2],IC50 [3],IC50 (Blood [4]),Vd [5],IC50 [6],bioavailability [7],clearance [8],IC50 (Angiopoietin-1 receptor),fraction unbound [9],IC50 [10],AUC(0-inf) [11],Cmax [12],half-life [13],IC50 (Lymphocyte),IC50 [14],IC50 (Blood [15]),Structure (SMILES),ED50 (Mus musculus)
0.42 h,0.011,272 nM,13 nM,3.76 L/kg,1.3 nM,4%,22.8 mL/min/kg,> 8300 nM,0.019,> 25000 nM,58 ng·h/mL,16 ng/mL,2.5 h,58 nM,10 nM,–,Cc1ccc(NC(=O)c2ccc3c(c2)OC(F)(F)O3)cc1C(=O)Nc1cnc(Nc2ccc(N3CCN(C)CC3)cc2)nc1,–
–,–,> 5000 nM,–,–,48 nM,–,–,> 25000 nM,–,> 25000 nM,–,–,–,–,63 nM,–,CC(=O)Nc1ccc(C)c(C(=O)Nc2cnc(Nc3ccc(N4CCN(C)CC4)cc3)nc2)c1,–
–,–,–,–,–,–,–,–,–,–,–,–,–,–,–,–,–,C/C=C/C[C@@H](C)[C@@H](O)[C@H]1C(=O)N[C@@H](CC)C(=O)N(C)CC(=O)N(C)[C@@H](CC(C)C)C(=O)N[C@@H](C(C)C)C(=O)N(C)[C@@H](CC(C)C)C(=O)N[C@@H](C)C(=O)N[C@H](C)C(=O)N(C)[C@@H](CC(C)C)C(=O)N(C)[C@@H](CC(C)C)C(=O)N(C)[C@@H](C(C)C)C(=O)N1C [CYCLOSPORINE],10 mg/kg
–,–,1120 nM,–,–,5 nM,–,–,> 25000 nM,–,> 25000 nM,–,–,–,399 nM,8 nM,–,COc1ccccc1C(=O)Nc1ccc(C)c(C(=O)Nc2cnc(Nc3ccc(N4CCN(C)CC4)cc3)nc2)c1,–
–,–,> 25000 nM,–,–,1310 nM,–,–,> 25000 nM,–,> 25000 nM,–,–,–,–,5 nM,–,Cc1ccc(NC(=O)c2cccc(C(F)(F)F)c2)cc1C(=O)Nc1cnc(NC2CCN(C)CC2)nc1,–
–,–,–,–,–,–,–,–,–,–,–,–,–,–,9 nM,–,–,Cc1ccc(C(=O)Nc2cccc(C(F)(F)F)c2)cc1-c1ccc2nc(N)ncc2c1,–
–,–,13 nM,–,–,1.8 nM,–,–,> 5000 nM,–,> 5000 nM,–,–,–,29 nM,6 nM,–,CN1CCN(c2ccc(Nc3ncc(NC(=O)c4cc(NC(=O)c5ccc6c(c5)OC(F)(F)O6)ccc4Cl)cn3)cc2)CC1,–
0.33 h,0.017,120 nM,43 nM,0.79 L/kg,1.4 nM,8%,4.83 mL/min/kg,> 8300 nM,0.012,> 25000 nM,528 ng·h/mL,191 ng/mL,2.5 h,77 nM,4 nM,–,COc1cc(OC)cc(C(=O)Nc2ccc(C)c(C(=O)Nc3cnc(Nc4ccc(N5CCN(C)CC5)cc4)nc3)c2)c1,–
–,–,5 nM,–,–,–,–,–,123 nM,–,438 nM,–,–,–,15 nM,10 nM,–,Cc1ccc(C(=O)Nc2cccc(C(F)(F)F)c2)cc1C(=O)Nc1cnc(Nc2ccc(N3CCN(C)CC3)cc2)nc1,–
–,–,41 nM,–,–,0.6 nM,–,–,> 8300 nM,–,> 25000 nM,–,–,–,87 nM,2 nM,–,Cc1ccc(NC(=O)Nc2cccc(C(F)(F)F)c2)cc1C(=O)Nc1cnc(Nc2ccc(N3CCN(C)CC3)cc2)nc1,–
–,–,125 nM,1270 nM,–,–,–,–,> 25000 nM,–,> 25000 nM,–,–,–,107 nM,–,> 10000 nM,Cc1ccc(NC(=O)c2cccc(C(F)(F)F)c2)cc1C(=O)Nc1cnc(N)nc1,–
–,–,> 5000 nM,–,–,6 nM,–,–,> 25000 nM,–,> 25000 nM,–,–,–,928 nM,233 nM,–,CCc1ccc(NC(=O)c2ccc3c(c2)OC(F)(F)O3)cc1C(=O)Nc1cnc(Nc2ccc(N3CCN(C)CC3)cc2)nc1,–
–,–,205 nM,–,–,15 nM,–,–,> 5000 nM,–,> 25000 nM,–,–,–,–,87 nM,–,Cc1ccc(C(=O)Nc2cccc(C(F)(F)F)c2)cc1C(=O)Nc1cnc(N)nc1,–
–,–,3780 nM,–,–,14 nM,–,–,> 25000 nM,–,> 25000 nM,–,–,–,3920 nM,179 nM,–,Cc1ccc(NC(=O)c2cnoc2C)cc1C(=O)Nc1cnc(Nc2ccc(N3CCN(C)CC3)cc2)nc1,–
–,–,6 nM,–,–,0.4 nM,–,–,21 nM,–,156 nM,–,–,–,43 nM,1 nM,–,Cc1ccc(NC(=O)c2cccc(C(F)(F)F)c2)cc1-c1ccc2nc(N)ncc2c1,–
2.75 h,0.014,54 nM,2 nM,5.45 L/kg,–,7%,48.7 mL/min/kg,> 8300 nM,0.016,> 25000 nM,92 ng·h/mL,28 ng/mL,1.8 h,60 nM,12 nM,1370 nM,Cc1ccc(NC(=O)c2cccc(C(F)(F)F)c2C)cc1C(=O)Nc1cnc(Nc2ccc(N3CCN(C)CC3)cc2)nc1,–
–,–,947 nM,–,–,5 nM,–,–,> 25000 nM,–,> 25000 nM,–,–,–,187 nM,0.9 nM,–,Cc1ccc(NC(=O)c2ccccc2)cc1C(=O)Nc1cnc(Nc2ccc(N3CCN(C)CC3)cc2)nc1,–
0.6 h,0.023,17 nM,16 nM,1.61 L/kg,0.3 nM,8%,8.17 mL/min/kg,6080 nM,0.018,> 25000 nM,332 ng·h/mL,39 ng/mL,3.8 h,21 nM,3 nM,1010 nM,Cc1ccc(NC(=O)c2cc(F)cc(C(F)(F)F)c2)cc1C(=O)Nc1cnc(Nc2ccc(N3CCN(C)CC3)cc2)nc1,–
–,–,2540 nM,–,–,6 nM,–,–,> 25000 nM,–,> 25000 nM,–,–,–,836 nM,103 nM,–,Cc1ccc(NC(=O)c2cccc(C(F)(F)F)c2)c(C)c1C(=O)Nc1cnc(Nc2ccc(N3CCN(C)CC3)cc2)nc1,–
–,–,> 8300 nM,–,–,–,–,–,> 25000 nM,–,> 25000 nM,–,–,–,–,199 nM,–,Cc1ccc(NC(=O)c2cccc(C(F)(F)F)c2)cc1C(=O)Nc1cncnc1,–
–,–,> 8300 nM,–,–,–,–,–,> 25000 nM,–,> 25000 nM,–,–,–,202 nM,6 nM,–,Cc1ccc(NC(=O)c2cccc(C(F)(F)F)c2)cc1C(=O)Nc1cnc(NCCN2CCOCC2)nc1,–
–,–,32 nM,–,15.8 L/kg,1.5 nM,–,111 mL/min/kg,> 8300 nM,–,> 25000 nM,–,–,2.9 h,10 nM,22 nM,–,Cc1ccc(NC(=O)c2ccc(C(C)(C)C)cc2)cc1C(=O)Nc1cnc(Nc2ccc(N3CCN(C)CC3)cc2)nc1,–

Structure (SMILES),Tmax [1],fraction unbound [2],IC50 [3],IC50 (Blood [4]),Vd [5],IC50 [6],bioavailability [7],clearance [8],IC50 (Angiopoietin-1 receptor),fraction unbound [9],IC50 [10],AUC(0-inf) [11],Cmax [12],half-life [13],IC50 (Lymphocyte),IC50 [14],IC50 (Blood [15]),ED50 (Mus musculus)
Cc1ccc(NC(=O)c2cccc(C(F)(F)F)c2)cc1C(=O)Nc1cnc(NCCCN2CCOCC2)nc1,–,–,> 8300 nM,–,–,24 nM,–,–,> 25000 nM,–,> 25000 nM,–,–,–,821 nM,10 nM,–,–
CN1CCN(c2ccc(Nc3ncc(NC(=O)c4c(Cl)cccc4Cl)cn3)cc2)CC1,–,–,> 25000 nM,–,–,10 nM,–,–,> 25000 nM,–,> 25000 nM,–,–,–,555 nM,1070 nM,–,–
Cc1ccc(NC(=O)Nc2cccc(C(F)(F)F)c2)cc1-c1ccc2nc(N)ncc2c1,–,–,169 nM,–,–,7 nM,–,–,93 nM,–,3040 nM,–,–,–,205 nM,28 nM,–,–
Cc1ccc(NC(=O)Nc2cccc(C(F)(F)F)c2)cc1C(=O)Nc1cnc(N)nc1,–,–,587 nM,–,–,63 nM,–,–,> 25000 nM,–,> 25000 nM,–,–,–,158 nM,–,–,–

# From ChEMBL document CHEMBL1144680, “Structure-guided design of aminopyrimidine amides as potent, selective inhibitors of lymphocyte specific kinase: synthesis, structure-activity relationships, and inhibition of in vivo T cell activation” (J Med Chem, 2008)
